From DBAASP
In brackets after ≈: the same amount, converted by molar mass.

Legend:
Assay in all cases: ≥ marks a high value that may be exact or a test limit, other limits are often not marked, values filed in µg/mL are converted to µM
[1] = tested on: Streptococcus mutans
[2] = tested on: Pseudomonas aeruginosa CMCCB 10104
[3] = tested on: Escherichia coli ATCC 25922
[4] = tested on: Staphylococcus aureus ATCC 25923
[5] = tested on: Candida albicans ATCC 2002
[6] = tested on: Staphylococcus aureus ATCC 43300
[7] = tested on: Pseudomonas aeruginosa PAO1

| MIC [1] | MIC [2] | MIC [3] | MIC [4] | MIC [5] | Compound | other results |
| --- | --- | --- | --- | --- | --- | --- |
| 21 µM (≈ 32 µg/mL) |  |  |  |  | CC(C)C[C@H](NC(=O)[C@H](Cc1c[nH]c2ccccc12)NC(=O)[C@H](CCC(N)=O)NC(=O)[C@H](CC(C)C)NC(=O)[C@H](Cc1ccccc1)NC(=O)[C@@H](NC(=O)[C@H](CCCCN)NC(=O)[C@@H](N)Cc1ccccc1)[C@@H](C)O)C(=O)N[C@@H](Cc1cnc[nH]1)C(=O)N[C@@H](CCCN=C(N)N)C(=O)N[C@@H](Cc1ccccc1)C(N)=O [FKTFLQWLHRF] |  |
| 30.8 µM (≈ 44.7 µg/mL) |  |  |  |  | CC[C@H](C)[C@H](N)C(=O)N[C@@H](CCCCN)C(=O)N[C@H](C(=O)N[C@@H](CC(C)C)C(=O)N[C@@H](CC(C)C)C(=O)N[C@@H](Cc1cnc[nH]1)C(=O)N[C@@H](Cc1ccccc1)C(=O)N[C@@H](Cc1ccccc1)C(=O)N[C@@H](CCC(N)=O)C(=O)N[C@@H](CCCN=C(N)N)C(=O)N[C@@H](Cc1ccccc1)C(N)=O)[C@@H](C)O [IKTLLHFFQRF] |  |
| ≥ 93.4 µM |  |  |  |  | CC(C)C[C@H](NC(=O)[C@@H](NC(=O)[C@H](CCCN=C(N)N)NC(=O)[C@H](CCCCN)NC(=O)[C@@H](NC(=O)[C@H](CCCCN)NC(=O)[C@H](CCC(N)=O)NC(=O)[C@H](C)NC(=O)[C@H](CC(C)C)NC(=O)[C@@H](N)CCCCN)C(C)C)C(C)C)C(=O)N[C@@H](CCCN=C(N)N)C(=O)O [KLAQKVKRVLR] |  |
| ≥ 224 µM |  |  |  |  | NCCCC[C@H](NC(=O)[C@H](Cc1c[nH]c2ccccc12)NC(=O)[C@H](Cc1c[nH]c2ccccc12)NC(=O)[C@H](CCCCN)NC(=O)[C@H](CCCN=C(N)N)NC(=O)[C@H](CCCN=C(N)N)NC(=O)[C@@H](N)CCCN=C(N)N)C(=O)O [RRRKWWK] |  |
| 13.3 µM (≈ 16 µg/mL) |  |  |  |  | NC(N)=NCCC[C@H](NC(=O)[C@H](CCCN=C(N)N)NC(=O)[C@H](CCCN=C(N)N)NC(=O)[C@@H](N)CCCN=C(N)N)C(=O)N[C@@H](Cc1c[nH]c2ccccc12)C(=O)N[C@@H](Cc1c[nH]c2ccccc12)C(=O)N[C@@H](Cc1c[nH]c2ccccc12)C(=O)O [RRRRWWW] | MIC [6]: 125 µM (≈ 150 µg/mL); MIC [7]: 125 µM (≈ 150 µg/mL) |
| ≥ 95.8 µM |  |  |  |  | CC[C@H](C)[C@H](NC(=O)[C@H](CC(N)=O)NC(=O)[C@H](CCCCN)NC(=O)[C@H](CC(C)C)NC(=O)[C@H](CO)NC(=O)[C@H](CCC(N)=O)NC(=O)[C@H](CC(C)C)NC(=O)[C@@H](NC(=O)[C@@H](N)[C@@H](C)O)[C@@H](C)CC)C(=O)N[C@@H](Cc1ccccc1)C(=O)N[C@@H](CCCCN)C(=O)O [TILQSLKNIFK] |  |

Continued, compound first:

| Compound | MIC [1] | MIC [2] | MIC [3] | MIC [4] | MIC [5] | other results |
| --- | --- | --- | --- | --- | --- | --- |
| CC[C@H](C)[C@H](NC(=O)[C@H](C)NC(=O)[C@H](CCSC)NC(=O)[C@H](CC(N)=O)NC(=O)[C@H](CCCCN)NC(=O)[C@H](Cc1ccccc1)NC(=O)[C@@H](NC(=O)[C@H](CC(=O)O)NC(=O)[C@H](CC(C)C)NC(=O)[C@H](CC(C)C)NC(=O)CN)[C@@H](C)O)C(=O)N[C@@H](CC(N)=O)C(=O)N[C@@H](C)C(=O)N[C@@H](C)C(=O)N[C@@H](Cc1cnc[nH]1)C(=O)NCC(=O)N[C@@H](C)C(=O)NCC(=O)N[C@H](C(=O)N[C@@H](CO)C(=O)N[C@H](C(=O)N[C@@H](CC(C)C)C(=O)N[C@@H](CC(N)=O)C(=O)N[C@@H](C)C(=O)N[C@@H](CC(C)C)C(=O)N[C@@H](CO)C(=O)N[C@H]1CSSC[C@@H](C(=O)O)NC(=O)[C@H]([C@@H](C)O)NC(=O)[C@H](CCCCN)NC(=O)[C@H](CCCCN)NC(=O)[C@H](CC(C)C)NC(=O)[C@H](CCCCN)NC1=O)C(C)C)C(C)C [GLLDTFKNMAINAAHGAGVSVLNALSCKLKKTC] |  | 3.72 µM (≈ 12.6 µg/mL) | 1.86 µM (≈ 6.3 µg/mL) | 1.86 µM (≈ 6.3 µg/mL) | 0.944 µM (≈ 3.2 µg/mL) |  |
| CSCC[C@H](NC(=O)[C@H](CC(N)=O)NC(=O)[C@H](CCCCN)NC(=O)[C@H](Cc1ccccc1)NC(=O)[C@@H](NC(=O)[C@H](CC(=O)O)NC(=O)[C@H](CC(C)C)NC(=O)[C@H](CC(C)C)NC(=O)CN)[C@@H](C)O)C(=O)N[C@@H](C)C(=O)N[C@@H](CC(C)C)C(=O)N[C@@H](CC(N)=O)C(=O)N[C@@H](C)C(=O)N[C@@H](C)C(=O)N[C@@H](CCCCN)C(=O)N[C@@H](CO)C(=O)N[C@@H](C)C(=O)NCC(=O)N[C@H](C(=O)N[C@@H](CO)C(=O)N[C@H](C(=O)N[C@@H](CC(C)C)C(=O)N[C@@H](CC(N)=O)C(=O)N[C@@H](C)C(=O)N[C@@H](CC(C)C)C(=O)N[C@@H](CO)C(=O)N[C@H]1CSSC[C@@H](C(=O)O)NC(=O)[C@H]([C@@H](C)O)NC(=O)[C@H](CCCCN)NC(=O)[C@H](CO)NC(=O)[C@H](CC(C)C)NC(=O)[C@H](CCCCN)NC1=O)C(C)C)C(C)C [GLLDTFKNMALNAAKSAGVSVLNALSCKLSKTC] |  | 1.96 µM (≈ 6.6 µg/mL) | 3.92 µM (≈ 13.2 µg/mL) | 1.96 µM (≈ 6.6 µg/mL) | 1.96 µM (≈ 6.6 µg/mL) |  |
| CC[C@H](C)[C@H](N)C(=O)N[C@@H](CCCCN)C(=O)N[C@@H](CCC(N)=O)C(=O)N[C@@H](CC(C)C)C(=O)N[C@@H](CC(C)C)C(=O)N[C@@H](Cc1cnc[nH]1)C(=O)N[C@@H](Cc1ccccc1)C(=O)N[C@@H](Cc1ccccc1)C(=O)N[C@@H](CCC(N)=O)C(=O)N[C@@H](CCCN=C(N)N)C(=O)N[C@@H](Cc1ccccc1)C(=O)NCC(=O)NCC(=O)NCC(=O)N[C@@H](CCCN=C(N)N)C(=O)N[C@@H](Cc1c[nH]c2ccccc12)C(=O)N[C@@H](CCCN=C(N)N)C(=O)N[C@@H](CCCN=C(N)N)C(=O)N[C@@H](CC(C)C)C(=O)N[C@@H](CC(C)C)C(=O)N[C@@H](CCCCN)C(=O)N[C@@H](CCCCN)C(=O)N[C@@H](CC(C)C)C(=O)N[C@@H](Cc1cnc[nH]1)C(=O)N[C@@H](Cc1cnc[nH]1)C(=O)N[C@@H](CC(C)C)C(=O)N[C@@H](CC(C)C)C(=O)N[C@@H](Cc1cnc[nH]1)C(N)=O [IKQLLHFFQRFGGGRWRRLLKKLHHLLH] | 4.52 µM (≈ 16 µg/mL) |  |  |  |  |  |
| CC(C)C[C@H](NC(=O)[C@H](Cc1c[nH]c2ccccc12)NC(=O)[C@@H]1CCCN1C(=O)[C@@H]1CCCN1C(=O)[C@H](CC(C)C)NC(=O)[C@@H](N)CC(C)C)C(=O)N[C@@H](CCCN=C(N)N)C(=O)N1CCC[C@H]1C(=O)N[C@@H](CCCN=C(N)N)C(=O)N[C@@H](CC(N)=O)C(=O)NCC(=O)O [LLPPWLRPRNG] |  | ≥ 152 µM | > 152 µM | > 152 µM | ≥ 152 µM |  |
| C[C@H](NC(=O)[C@H](CO)NC(=O)[C@H](C)NC(=O)[C@H](Cc1ccccc1)NC(=O)[C@H](Cc1c[nH]c2ccccc12)NC(=O)[C@H](CCCN=C(N)N)NC(=O)[C@H](Cc1c[nH]c2ccccc12)NC(=O)[C@H](CCCN=C(N)N)NC(=O)[C@H](Cc1c[nH]c2ccccc12)NC(=O)[C@@H](N)CCCN=C(N)N)C(=O)N[C@@H](CO)C(=O)N[C@@H](C)C(=O)N[C@@H](CCCN=C(N)N)C(=O)N[C@@H](Cc1c[nH]c2ccccc12)C(=O)N[C@@H](CCCN=C(N)N)C(=O)N[C@@H](Cc1c[nH]c2ccccc12)C(=O)N[C@@H](CCCN=C(N)N)C(=O)N[C@@H](Cc1c[nH]c2ccccc12)C(=O)N[C@@H](Cc1ccccc1)C(N)=O [RWRWRWFASASARWRWRWF] | 5.81 µM (≈ 16 µg/mL) |  |  |  |  |  |
| CC[C@H](C)[C@@H]1NC(=O)[C@@H](NC(=O)[C@H](CCCN=C(N)N)NC(=O)[C@H](CO)NC(=O)[C@@H](N)[C@@H](C)O)CSSC[C@@H](C(=O)N[C@@H](CO)C(=O)O)NC(=O)[C@H](CCCCN)NC(=O)[C@H](CCCCN)NC(=O)[C@H](CCCN=C(N)N)NC(=O)[C@H](CCCN=C(N)N)NC(=O)[C@H](Cc2ccc(O)cc2)NC(=O)[C@H](Cc2ccccc2)NC1=O [TSRCIFYRRKKCS] |  | 18.2 µM (≈ 30 µg/mL) | 18.2 µM (≈ 30 µg/mL) | > 72.8 µM | 18.2 µM (≈ 30 µg/mL) |  |
